This is an account of results in BindingDB's records for PubMed 1848629 (Georgetown University, 1991).

Values joined by “and” are separate entries in the source; they are usually repeats but may differ in a detail not shown here. Equal values may be shown once.

For the first assay, the target named is Gamma-aminobutyric acid type B receptor subunit 1 (UniProt Q9Z0U4).
Gamma-aminobutyric acid type B receptor subunit 1, sequence (Q9Z0U4 whole entry): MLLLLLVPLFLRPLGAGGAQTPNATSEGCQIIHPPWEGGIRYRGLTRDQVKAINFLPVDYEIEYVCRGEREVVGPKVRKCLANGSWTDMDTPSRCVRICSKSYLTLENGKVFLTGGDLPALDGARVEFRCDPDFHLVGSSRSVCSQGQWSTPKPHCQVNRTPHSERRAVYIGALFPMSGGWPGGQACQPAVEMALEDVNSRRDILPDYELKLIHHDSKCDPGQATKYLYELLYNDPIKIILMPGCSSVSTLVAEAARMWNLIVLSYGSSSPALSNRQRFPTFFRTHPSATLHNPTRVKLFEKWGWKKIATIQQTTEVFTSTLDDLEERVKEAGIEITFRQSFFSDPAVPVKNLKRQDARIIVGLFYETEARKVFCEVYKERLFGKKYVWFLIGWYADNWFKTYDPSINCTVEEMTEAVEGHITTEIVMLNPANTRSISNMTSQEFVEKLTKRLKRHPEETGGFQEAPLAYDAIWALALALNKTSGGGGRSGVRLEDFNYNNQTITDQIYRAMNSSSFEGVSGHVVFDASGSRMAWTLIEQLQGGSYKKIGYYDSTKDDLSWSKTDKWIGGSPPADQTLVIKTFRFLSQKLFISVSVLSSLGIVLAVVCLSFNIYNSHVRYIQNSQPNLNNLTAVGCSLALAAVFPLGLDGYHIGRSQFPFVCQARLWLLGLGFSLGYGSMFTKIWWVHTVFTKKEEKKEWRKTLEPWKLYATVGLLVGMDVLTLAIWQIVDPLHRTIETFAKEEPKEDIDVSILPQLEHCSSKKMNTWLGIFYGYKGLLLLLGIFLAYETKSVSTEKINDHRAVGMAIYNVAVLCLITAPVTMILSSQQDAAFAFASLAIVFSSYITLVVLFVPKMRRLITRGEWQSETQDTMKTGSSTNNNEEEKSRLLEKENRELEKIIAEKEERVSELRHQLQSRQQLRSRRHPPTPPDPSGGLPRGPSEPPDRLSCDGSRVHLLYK
The term Ki denotes a dissociation constant, usually derived from enzyme kinetics or from competition with a known ligand. Take `CN1C(=O)CN=C(c2ccccc2F)c2cc([N+](=O)[O-])ccc21` [Flunitrazepam]: the Ki was 8.8 nM and 10 nM and 6.1 nM and 5 nM and 7.5 nM.

Compound `CC[C@@H](C)N(C)C(=O)c1cc2ccccc2c(-c2ccccc2Cl)n1` [PK 11195] showed a Ki of 1000 nM.

For the compound `Cc1nnc2n1-c1ccc(Cl)cc1C(c1ccccc1)=NC2`, the Ki is 4.5 nM and 5 nM and 6.7 nM and 5.3 nM and 8 nM.

`CN1C(=O)CN=C(c2ccc(Cl)cc2)c2cc(Cl)ccc21` [Ro5-4864] came in with a Ki of 1000 nM.

On to `CN1C(=O)CN=C(c2ccccc2)c2cc(Cl)ccc21`, for which the Ki was 19 nM and 18 nM and 22 nM and 20 nM and 26 nM.

A further assay deals with Gamma-aminobutyric acid (GABA) B receptor 1 (Rattus norvegicus, UniProt Q6MFX8).
Gamma-aminobutyric acid (GABA) B receptor 1, sequence (Q6MFX8 whole entry): as the sequence (Q9Z0U4 whole entry) above
As to `Cc1nnc2ccc(-c3cccc(C(F)(F)F)c3)nn12`, the Ki was 15 nM and 12 nM and 100 nM.

Consider `CCOC(=O)c1ncn2c1CN(C)C(=O)c1cc(F)ccc1-2` [ethyl 12-fluoro-8-methyl-9-oxo-2,4,8-triazatricyclo[8.4.0.0^{2,6}]tetradeca-1(14),3,5,10,12-pentaene-5-carboxylate], for which the inhibition constant Ki is 1 nM and 2 nM and 1.9 nM.
